# Test results as given in ChEMBL document CHEMBL3507680, “University of Dundee, Gates Library screen for HepG2 cell viability”.
# Assay: Human HepG2 cell viability assay in 384 well format
# Assay type: toxicity, cell-based
# Parameters: dose 125 nL, time 70.5 hour; cytotoxicity at 70.5 h: concentration not given beside the values
# Details: HepG2 cells, read-out: Inhibition
row,SMILES,cytotoxicity at 70.5 h [%]
1,CCC(C)(C)n1nnnc1C(c1cccs1)N1CCc2ccccc21 (stereo not given),-1.64
2,OCCN1CCC(c2csc(Nc3cnccn3)n2)CC1,14.5
3,CC(=O)N1CCCC(c2nccnc2Nc2nc(C)cc(C)n2)C1 (stereo not given),13.3
4,CC(=O)NCc1ccc(-c2ccccc2C(=O)O)cn1,-1.2
5,c1cnnc(N[C@@H]2CC[C@@H]3CN(Cc4c[nH]c5ccccc45)C[C@@H]32)c1,4.96
6,O=C(c1ccc2c(c1)CCC2)N1CCn2ncnc2C1,3.48
7,COCC(=O)NCCn1nc(-c2cc(C)oc2C)ccc1=O,-2.12
8,CNC(=O)CCc1cc(C2CCCCN2C(C)C)nc(C)n1 (stereo not given),-1.6
9,CNC(=O)CCc1cc(C2CCCCN2C)nc(C)n1 (stereo not given),-7.9
10,COCCC(=O)N1Cc2nc3c(C)c(-c4cccs4)nn3c(O)c2C1,-14.7
11,Cc1ccc(C(=O)N2CCC(c3noc(-c4cccnc4)n3)CC2)cn1,-3.32
12,Cc1c(-c2cccs2)nn2c(O)c3c(nc12)CN(C(=O)C1CC1)C3,-4.82
13,Cc1cc2c(cc1Cl)C=CC1(CCN(C(=O)N3CCOCC3)CC1)O2,22
14,Cc1cc2c(cc1Cl)C=CC1(CCN(CC(=O)N3CCCC3)CC1)O2,2.51
15,Cc1cc2c(cc1Cl)C=CC1(CCN(CC(=O)NC3CCCC3)CC1)O2,-1.12
16,Cc1ccc(-c2cc(N)c(=O)n(C(C)C(N)=O)n2)o1 (stereo not given),-5.11
17,O=C1CCC(c2nc(C3CCN(C(=O)Cc4cccs4)CC3)no2)N1 (stereo not given),-6.58
18,O[C@@H]1C[C@H]2CN(Cc3ccsc3)[C@@H](Cc3ccccc3)CN2C1,-1.32
19,Cc1cc(N(C)C)nc(C2COCCN2Cc2nccn2C)n1 (stereo not given),-6.31
20,CN(C)c1ncc(-c2ccc(C(N)=O)cc2)c(C2CNCCO2)n1 (stereo not given),-4.35
21,Nc1ncc(-c2ccc(F)cc2)c(C2CCCNC2)n1 (stereo not given),24.3
22,Cc1nn(C)c(C)c1-c1nccnc1CC1CCNCC1,-1.07
23,Cc1cn[nH]c1C1COCCN1C(=O)c1ccc2[nH]nnc2c1 (stereo not given),-4.19

row,SMILES,cytotoxicity at 70.5 h [%]
1,CNc1cc(C)nc(C2COCCN2Cc2csc(C)n2)n1 (stereo not given),-9.53
2,COc1cccc(CC(=O)N2CCC(c3ccn4nccc4n3)CC2)c1,-3.73
3,c1cc(NC2CC3(CCN(Cc4cscn4)C3)C2)ncn1 (stereo not given),-7.63
4,O=C(NC[C@]1(O)CCN(Cc2ccsc2)C[C@H]1O)c1c[nH]cn1,-9.1
5,O[C@@H]1C[C@H]2CN(Cc3ccccc3Cl)[C@H](Cc3ccccc3)CN2C1,25.5
6,CN[C@@H]1CCC[C@@H](Oc2ccccc2Oc2ccc(C)cc2)[C@@H]1O,22.2
7,CC(=O)N1CCCC(c2ccc(CO)c(-c3c(C)noc3C)n2)C1 (stereo not given),27.2
8,CNC(=O)CCc1cc(C2CCCN2C(=O)CO)nc(C)n1 (stereo not given),-5.79
9,O=C(c1cc2cccc(F)c2[nH]1)N1C[C@@H](O)[C@H](N2CCCC2)C1,-4.92
10,Cc1cc(N2CCC(O)(CN(C)C(=O)CCN)CC2)c2cnccc2n1,-5.17
11,CCC1CNCc2cc3c(C)ccc(C)c3nc2O1 (stereo not given),-1.78
12,Cc1ncsc1-c1cc(C(=O)NCCO)ccn1,21.2
13,Cc1ccnc(C2CCN(C(=O)c3cnn(C)c3)CC2)n1,23.3
14,COCCN1CCC(Cc2cnc(-c3ccccc3C(=O)O)cn2)CC1,8.51
15,Cc1nccn1CCCn1cncc1-c1ccc2c(c1)CCC(C)N2C (stereo not given),-1.7
16,Cn1cncc1CN1CCc2nc3sccc3c(=O)n2CC1,-19.1
17,CCOc1ccccc1-c1cc(N)[nH]n1,-5.47
18,Cc1nccn1CCCn1cncc1-c1ccc2c(c1)CCCN2C,-5.52
19,CN(C)c1ncc(-c2cncnc2)c(C2CNCCO2)n1 (stereo not given),-8.74
20,COc1ccc(-c2cnc(N)nc2C2CCCNC2)cc1 (stereo not given),0.112
21,COc1ccc([C@@H]2CN(Cc3ccncc3)C[C@H]2c2cc[nH]n2)cc1,-7.91
22,c1ccc([C@@H]2CN(Cc3cccnc3)C[C@H]2c2cc[nH]n2)cc1,-7.07
